Results as given in PubChem BioAssay AID1745844 (Carcinogenic Potency Database (CPDB), 2022).
The source made the active and inactive calls. No rule for the calls is given here.

Tested on: rodent lifetime carcinogenesis bioassay, tumor incidence TD50
Test: carcinogenic potency in animals, long-term in vivo studies, CPDB compilation (AID 1745844)
Conditions: in drinking water

SMILES: CN(N)C=O
- TD50 (hamster, strain Syrian Golden, females, site: all sites, lesion: histiocytoma, malignant, dosed 102 weeks, study length 102 weeks): 4.71 mg/kg/day
- TD50 (hamster, strain Syrian Golden, females, site: any site (literature study), lesion: several types, types named in the paper, dosed 102 weeks, study length 102 weeks): 6.04 mg/kg/day
- TD50 (hamster, strain Syrian Golden, females, site: gall bladder, lesion: several types, types named in the paper, dosed 102 weeks, study length 102 weeks): 29.1 mg/kg/day
- TD50 (hamster, strain Syrian Golden, females, site: liver, lesion: hepatoma, dosed 102 weeks, study length 102 weeks): 28.3 mg/kg/day
- TD50 (hamster, strain Syrian Golden, females, site: liver, lesion: liver-cell carcinoma, dosed 102 weeks, study length 102 weeks): 25.1 mg/kg/day
- TD50 (hamster, strain Syrian Golden, females, site: liver, lesion: several types, types named in the paper, dosed 102 weeks, study length 102 weeks): 11.3 mg/kg/day
- TD50 (hamster, strain Syrian Golden, males, site: all sites, lesion: histiocytoma, malignant, dosed 102 weeks, study length 102 weeks): 12.7 mg/kg/day
- TD50 (hamster, strain Syrian Golden, males, site: any site (literature study), lesion: several types, types named in the paper, dosed 102 weeks, study length 102 weeks): 4.89 mg/kg/day
- TD50 (hamster, strain Syrian Golden, males, site: bile duct, lesion: several types, types named in the paper, dosed 102 weeks, study length 102 weeks): 19.7 mg/kg/day
- TD50 (hamster, strain Syrian Golden, males, site: gall bladder, lesion: papillary adenoma, dosed 102 weeks, study length 102 weeks): 42.5 mg/kg/day
- TD50 (hamster, strain Syrian Golden, males, site: gall bladder, lesion: several types, types named in the paper, dosed 102 weeks, study length 102 weeks): 25.3 mg/kg/day
- TD50 (hamster, strain Syrian Golden, males, site: liver, lesion: hepatoma, dosed 102 weeks, study length 102 weeks): 13.3 mg/kg/day
- TD50 (hamster, strain Syrian Golden, males, site: liver, lesion: liver-cell carcinoma, dosed 102 weeks, study length 102 weeks): 30 mg/kg/day
- TD50 (hamster, strain Syrian Golden, males, site: liver, lesion: several types, types named in the paper, dosed 102 weeks, study length 102 weeks): 7.55 mg/kg/day
- TD50 (mouse, strain Swiss albino, females, site: blood vessels, lesion: several types, types named in the paper, dosed 92 weeks, study length 92 weeks): 12.2 mg/kg/day
- TD50 (mouse, strain Swiss albino, females, site: blood vessels, lesion: several types, types named in the paper, dosed 99 weeks, study length 100 weeks): 6.04 mg/kg/day
- TD50 (mouse, strain Swiss albino, females, site: gall bladder, lesion: adenoma, dosed 65 weeks, study length 73 weeks): 31.5 mg/kg/day
- TD50 (mouse, strain Swiss albino, females, site: gall bladder, lesion: adenoma, dosed 92 weeks, study length 92 weeks): 39.7 mg/kg/day
- TD50 (mouse, strain Swiss albino, females, site: gall bladder, lesion: several types, types named in the paper, dosed 92 weeks, study length 92 weeks): 31.3 mg/kg/day
- TD50 (mouse, strain Swiss albino, females, site: gall bladder, lesion: several types, types named in the paper, dosed 99 weeks, study length 100 weeks): 57.9 mg/kg/day
- TD50 (mouse, strain Swiss albino, females, site: liver, lesion: angioma, dosed 97 weeks, study length 102 weeks): 23.8 mg/kg/day (inactive)
- TD50 (mouse, strain Swiss albino, females, site: liver, lesion: hepatoma, benign, dosed 92 weeks, study length 92 weeks): 17.5 mg/kg/day
- TD50 (mouse, strain Swiss albino, females, site: liver, lesion: hepatoma, benign, dosed 99 weeks, study length 100 weeks): 24.7 mg/kg/day
- TD50 (mouse, strain Swiss albino, females, site: liver, lesion: hepatoma, dosed 65 weeks, study length 73 weeks): 19.5 mg/kg/day
- TD50 (mouse, strain Swiss albino, females, site: liver, lesion: hepatoma, dosed 97 weeks, study length 102 weeks): 9.23 mg/kg/day (inactive)
- TD50 (mouse, strain Swiss albino, females, site: liver, lesion: liver-cell carcinoma, dosed 65 weeks, study length 73 weeks): 19.9 mg/kg/day
- TD50 (mouse, strain Swiss albino, females, site: liver, lesion: liver-cell carcinoma, dosed 92 weeks, study length 92 weeks): 22.4 mg/kg/day
- TD50 (mouse, strain Swiss albino, females, site: liver, lesion: several types, types named in the paper, dosed 65 weeks, study length 73 weeks): 10.4 mg/kg/day
- TD50 (mouse, strain Swiss albino, females, site: liver, lesion: several types, types named in the paper, dosed 92 weeks, study length 92 weeks): 8.66 mg/kg/day
- TD50 (mouse, strain Swiss albino, females, site: lung, lesion: adenocarcinoma, dosed 97 weeks, study length 102 weeks): 1.12 mg/kg/day
- TD50 (mouse, strain Swiss albino, females, site: lung, lesion: adenoma, dosed 97 weeks, study length 102 weeks): 1.5 mg/kg/day
- TD50 (mouse, strain Swiss albino, females, site: lung, lesion: several types, types named in the paper, dosed 65 weeks, study length 73 weeks): 6.44 mg/kg/day
- TD50 (mouse, strain Swiss albino, females, site: lung, lesion: several types, types named in the paper, dosed 92 weeks, study length 92 weeks): 2.16 mg/kg/day
- TD50 (mouse, strain Swiss albino, females, site: lung, lesion: several types, types named in the paper, dosed 97 weeks, study length 102 weeks): 0.745 mg/kg/day
- TD50 (mouse, strain Swiss albino, females, site: lung, lesion: several types, types named in the paper, dosed 99 weeks, study length 100 weeks): 0.921 mg/kg/day
- TD50 (mouse, strain Swiss albino, males, site: bile duct, lesion: cholangioma, dosed 82 weeks, study length 82 weeks): 12.4 mg/kg/day
- TD50 (mouse, strain Swiss albino, males, site: bile duct, lesion: several types, types named in the paper, dosed 65 weeks, study length 72 weeks): 36.2 mg/kg/day
- TD50 (mouse, strain Swiss albino, males, site: blood vessels, lesion: several types, types named in the paper, dosed 96 weeks, study length 100 weeks): 3.47 mg/kg/day
- TD50 (mouse, strain Swiss albino, males, site: forestomach, lesion: squamous-cell papilloma, dosed 97 weeks, study length 102 weeks): 11.2 mg/kg/day (inactive)
- TD50 (mouse, strain Swiss albino, males, site: gall bladder, lesion: adenoma, dosed 65 weeks, study length 72 weeks): 38 mg/kg/day
- TD50 (mouse, strain Swiss albino, males, site: gall bladder, lesion: adenoma, dosed 82 weeks, study length 82 weeks): 15.2 mg/kg/day
- TD50 (mouse, strain Swiss albino, males, site: gall bladder, lesion: adenoma, dosed 96 weeks, study length 100 weeks): 9.88 mg/kg/day
- TD50 (mouse, strain Swiss albino, males, site: gall bladder, lesion: several types, types named in the paper, dosed 96 weeks, study length 100 weeks): 9.1 mg/kg/day
- TD50 (mouse, strain Swiss albino, males, site: liver, lesion: several types, types named in the paper, dosed 65 weeks, study length 72 weeks): 16.8 mg/kg/day
- TD50 (mouse, strain Swiss albino, males, site: liver, lesion: several types, types named in the paper, dosed 82 weeks, study length 82 weeks): 1.03 mg/kg/day
- TD50 (mouse, strain Swiss albino, males, site: liver, lesion: several types, types named in the paper, dosed 96 weeks, study length 100 weeks): 5.47 mg/kg/day
- TD50 (mouse, strain Swiss albino, males, site: lung, lesion: adenocarcinoma, dosed 97 weeks, study length 102 weeks): 2.48 mg/kg/day
- TD50 (mouse, strain Swiss albino, males, site: lung, lesion: adenoma, dosed 97 weeks, study length 102 weeks): 1.3 mg/kg/day
- TD50 (mouse, strain Swiss albino, males, site: lung, lesion: several types, types named in the paper, dosed 65 weeks, study length 72 weeks): 14.2 mg/kg/day
- TD50 (mouse, strain Swiss albino, males, site: lung, lesion: several types, types named in the paper, dosed 82 weeks, study length 82 weeks): 1.87 mg/kg/day
- TD50 (mouse, strain Swiss albino, males, site: lung, lesion: several types, types named in the paper, dosed 96 weeks, study length 100 weeks): 1.72 mg/kg/day
- TD50 (mouse, strain Swiss albino, males, site: lung, lesion: several types, types named in the paper, dosed 97 weeks, study length 102 weeks): 0.865 mg/kg/day
- TD50 (mouse, strain Swiss albino, males, site: seminal vesicle, lesion: adenoma, dosed 82 weeks, study length 82 weeks): 20.7 mg/kg/day (inactive)
- TD50 (mouse, strain Swiss albino, males, site: stomach, glandular, lesion: polypoid adenoma, dosed 97 weeks, study length 102 weeks): 3.43 mg/kg/day (inactive)
- TD50 (mouse, strain Swiss albino, males, site: subcutaneous tissue, lesion: fibrosarcoma, dosed 97 weeks, study length 102 weeks): 2.6 mg/kg/day (inactive)
